Reference: patent US20210238187A1, “AZIRIDINE CONTAINING EPOTHILONE ANALOGS, METHODS OF SYNTHESIS, METHODS OF TREATMENT, AND DRUG CONJUGATES” (WILLIAM MARSH RICE UNIVERSITY, priority 2017, published 2021)
Where two headings read alike, the source gives them in different places.

Legend:
Tubulin = Tubulin assembly induction; type: biochemical
MCF-7 = assay: Cytotoxicity (GI50) assay, MCF-7; type: cell-based, human
OVCAR-8 = assay: Cytotoxicity (GI50) assay, OVCAR-8; type: cell-based, human
NCI/ADR-RES = assay: Cytotoxicity (GI50) assay, NCI/ADR-RES; type: cell-based, human; settings: read-out: Cancer cell lines GI50, NCI/ADR-RES
MDA-MB-435 = assay: Cytotoxicity (GI50) assay, MDA-MB-435; type: cell-based, human
SNB-75 = assay: Cytotoxicity (GI50) assay, SNB-75; type: cell-based, human
MES SA = assay: Cytotoxicity assay (CellTiter-Glo), MES SA; type: cell-based, human; settings: MES-SA, read-out: Cancer cell lines IC50, MES SA
MES SA DX = assay: Cytotoxicity assay (CellTiter-Glo), MES SA DX; type: cell-based, human; settings: Homo sapiens, read-out: Cancer cell lines IC50, MES SA DX
HEK 293T = assay: Cytotoxicity assay (CellTiter-Glo), HEK 293T; type: cell-based; settings: Homo sapiens, 72 h, read-out: Cancer cell lines IC50, HEK 293T
[1] = Homo sapiens, MCF7, read-out: Cancer cell lines GI50, MCF-7
[2] = Homo sapiens, OVCAR-8, read-out: Cancer cell lines GI50, OVCAR-8
[3] = Homo sapiens, MDA-MB-435, read-out: Cancer cell lines GI50, MDA-MB-435
[4] = Homo sapiens, SNB-75, read-out: Cancer cell lines GI50, SNB-75
[5] = MCF7, human breast cancer cell line, concentration required to decrease cell growth by 50%, read-out: Cancer cell lines GI50, MCF-7
[6] = OVCAR-8, human ovarian cancer cell line, read-out: Cancer cell lines GI50, OVCAR-8
[7] = Homo sapiens, NCI/ADR-RES, highly drug resistant human ovarian cancer cell line
[8] = MDA-MB-435, human melanoma cell line, read-out: Cancer cell lines GI50, MDA-MB-435
[9] = SNB-75, human glioblastoma cell line, read-out: Cancer cell lines GI50, SNB-75
[10] = human uterine sarcoma cell line, 72 hours, CellTiter-Glo
[11] = MES SA cell line with marked multidrug resistance, 72 hours, CellTiter-Glo

Row | Compound | EC50 (Tubulin; […]) [nM] | GI50 (MCF-7; [1]) [nM] | GI50 (OVCAR-8; [2]) [nM] | GI50 (NCI/ADR-RES; Homo sapiens, NCI/ADR-RES) [nM] | GI50 (MDA-MB-435; [3]) [nM] | GI50 (SNB-75; [4]) [nM] | IC50 (MES SA; Homo sapiens, 72 h) [nM] | IC50 (MES SA DX; MES-SA, 72 h) [nM] | IC50 (HEK 293T) [nM] | EC50 (Tubulin) [nM] | GI50 (MCF-7; [5]) [nM] | GI50 (OVCAR-8; [6]) [nM] | GI50 (NCI/ADR-RES; [7]) [nM] | GI50 (NCI/ADR-RES; highly drug resistant human ovarian cancer cell line) [nM] | GI50 (MDA-MB-435; [8]) [nM] | GI50 (SNB-75; [9]) [nM] | IC50 (MES SA; [10]) [nM] | IC50 (MES SA DX; [11]) [nM]
1 | C/C(=C\c1csc(C)n1)[C@@H]1C[C@@H]2O[C@]2(C)CCC[C@H](C)[C@H](O)[C@@H](C)C(=O)C(C)(C)[C@@H](O)CC(=O)O1 [compound 2, epothilone B, reference compound] | […] | 9.2 | 15 | 19 | 7 | 8 | 0.28 | 1.16 | 0.26 | – | – | – | – | – | – | – | – | –
2 | CC1=CCC(C(C)=Cc2csc(C)n2)OC(=O)CC(O)C(C)(C)C(=O)C(C)C(O)C(C)CCC1 (stereo not drawn) [compound 4, epothilone D, reference compound] | – | 14 | 13 | 17 | – | – | 6.84 | 9.7 | 3.55 | 18000 | – | – | – | – | – | – | – | –
3 | C/C(=C\c1csc(C)n1)[C@@H]1C[C@@H]2N[C@@H]2CCC[C@H](C)[C@H](O)[C@@H](C)C(=O)C(C)(C)[C@@H](O)CC(=O)O1 [compound 8, 12,13-aziridinyl epothilone A, reference compound] | > 40000 | 2.5 | 5.5 | 38 | – | – | 1.14 | 16.9 | 0.95 | – | – | – | – | – | – | – | – | –
4 | C/C(=C\c1csc(C)n1)[C@@H]1C[C@H]2[C@@H](CCC[C@H](C)[C@H](O)[C@@H](C)C(=O)C(C)(C)[C@@H](O)CC(=O)O1)N2CCO (stereo partly drawn) [compound 9, (1S,3S,7S,10R,11S,12S,16R)-7,11-Dihydroxy-17-(2-hydroxyethyl)-8,8,10,12-tetramethyl-3-[(1E)-1-(2-methyl-1,3-thiazol-4-yl)prop-1-en-2-yl]-4-oxa-17-azabicyclo[14.1.0]heptadecane-5,9-dione, reference compound] | 1900 | 2 | 3 | – | – | – | 8.01 | 15.7 | 0.67 | – | – | – | – | – | – | – | – | –
5 | C/C(=C\c1coc(C)n1)[C@@H]1C[C@@H]2N(CCO)[C@]2(C)CCC[C@H](C)[C@H](O)[C@@H](C)C(=O)C(C)(C)[C@@H](O)CC(=O)O1 (stereo partly drawn) [compound 16, (1S,3S,7S,10R,11S,12S,16R)-7,11-Dihydroxy-17-(2-hydroxyethyl)-8,8,10,12,16-pentamethyl-3-[(1E)-1-(2-methyl-1,3-oxazol-4-yl)prop-1-en-2-yl]-4-oxa-17-azabicyclo[14.1.0]heptadecane-5,9-dione] | 38000 | 17 | 39 | 190 | 11 | 19 | 2.71 | 79.4 | 0.95 | – | – | – | – | – | – | – | – | –
6 | CSc1nc(/C=C(\C)[C@@H]2C[C@@H]3N(CCO)[C@]3(C)CCC[C@H](C)[C@H](O)[C@@H](C)C(=O)C(C)(C)[C@@H](O)CC(=O)O2)co1 (stereo partly drawn) [compound 17, (1S,3S,7S,10R,11S,12S,16R)-7,11-Dihydroxy-17-(2-hydroxyethyl)-8,8,10,12,16-pentamethyl-3-{(1E)-1-[2-(methylsulfanyl)-1,3-oxazol-4-yl]prop-1-en-2-yl}-4-oxa-17-azabicyclo[14.1.0]-heptadecane-5,9-dione] | 4000 ± 1000 | 7.5 | 25 | – | 3.5 | 13 | 0.02 | 1.11 | 0.05 | – | – | – | – | – | – | – | – | –
7 | CSc1nc(/C=C(\C)[C@@H]2C[C@@H]3N(CCOC(C)=O)[C@]3(C)CCC[C@H](C)[C@H](OC(C)=O)[C@@H](C)C(=O)C(C)(C)[C@@H](OC(C)=O)CC(=O)O2)co1 (stereo partly drawn) [compound 18, (1S,3S,7S,10R,11S,12S,16R)-17-(2-Acetoxyethyl)-8,8,10,12,16-pentamethyl-3-{(1E)-1-[2-(methylsulfanyl)-1,3-oxazol-4-yl]prop-1-en-2-yl}-5,9-dioxo-4-oxa-17-azabicyclo[14.1.0]-heptadecane-7,11-diyl diacetate] | > 60000 | 1100 | 290 | 2300 | 120 | 290 | 116 | 373 | 17.9 | – | – | – | – | – | – | – | – | –
8 | CSc1nc(/C=C(\C)[C@@H]2C[C@@H]3N(CCN=[N+]=[N-])[C@]3(C)CCC[C@H](C)[C@H](O)[C@@H](C)C(=O)C(C)(C)[C@@H](O)CC(=O)O2)cs1 (stereo partly drawn) [compound 34, (1S,3S,7S,10R,11S,12S,16R)-17-(2-Azidoethyl)-7,11-dihydroxy-8,8,10,12,16-pentamethyl-3-{(1E)-1-[2-(methylsulfanyl)-1,3-thiazol-4-yl]prop-1-en-2-yl}-4-oxa-17-azabicyclo[14.1.0]heptadecane-5,9-dione] | 5400 | – | – | – | – | – | – | – | – | – | 13 | 15 | 3.2 to 8.8 | 3.2 | 7.3 | 22 | 0.24 | 0.52
9 | CSc1nc(/C=C(\C)[C@@H]2C[C@@H]3N(CCOC(C)=O)[C@]3(C)CCC[C@H](C)[C@H](O)[C@@H](C)C(=O)C(C)(C)[C@@H](O)CC(=O)O2)cs1 (stereo partly drawn) [compound 36, 2-[(1S,3S,7S,10R,11S,12S,16R)-7,11-Dihydroxy-8,8,10,12,16-pentamethyl-3-{(1E)-1-[2-(methylsulfanyl)-1,3-thiazol-4-yl]prop-1-en-2-yl}-5,9-dioxo-4-oxa-17-azabicyclo[14.1.0]-heptadec-17-yl]ethyl acetate] | 4000 | 5.5 | 18 | – | 3.5 | 23 | 0.29 | 0.86 | 0.07 | – | – | – | – | – | – | – | – | –
10 | CSc1nc(/C=C(\C)[C@@H]2C[C@@H]3N(CCN)[C@]3(C)CCC[C@H](C)[C@H](O)[C@@H](C)C(=O)C(C)(C)[C@@H](O)CC(=O)O2)cs1 (stereo partly drawn) [compound 37, (1S,3S,7S,10R,11S,12S,16R)-17-(2-Aminoethyl)-7,11-dihydroxy-8,8,10,12,16-pentamethyl-3-{(1E)-1-[2-(methylsulfanyl)-1,3-thiazol-4-yl]prop-1-en-2-yl}-4-oxa-17-azabicyclo[14.1.0]heptadecane-5,9-dione] | 6100 | – | – | – | – | – | – | – | – | – | 14 | 63 | 70 | – | 15 | 23 | 0.108 | 12
11 | CSc1nc(/C=C(\C)[C@@H]2C[C@@H]3N(CC4CC4)[C@]3(C)CCC[C@H](C)[C@H](O)[C@@H](C)C(=O)C(C)(C)[C@@H](O)CC(=O)O2)cs1 (stereo partly drawn) [compound 38, (1S,3S,7S,10R,11S,12S,16R)-17-(Cyclopropylmethyl)-7,11-dihydroxy-8,8,10,12,16-pentamethyl-3-{(1E)-1-[2-(methylsulfanyl)-1,3-thiazol-4-yl]prop-1-en-2-yl}-4-oxa-17-azabicyclo-[14.1.0]heptadecane-5,9-dione] | 5100 | – | – | – | – | – | – | – | – | – | 18 | 15 | 18 | – | 9.5 | 16 | 0.056 | 1.26
12 | C#CCCN1[C@H]2C[C@@H](/C(C)=C/c3csc(SC)n3)OC(=O)C[C@H](O)C(C)(C)C(=O)[C@H](C)[C@@H](O)[C@@H](C)CCC[C@]21C (stereo partly drawn) [compound 39, (1S,3S,7S,10R,11S,12S,16R)-17-(But-3-yn-1-yl)-7,11-dihydroxy-8,8,10,12,16-pentamethyl-3-{(1E)-1-[2-(methylsulfanyl)-1,3-thiazol-4-yl]prop-1-en-2-yl}-4-oxa-17-azabicyclo[14.1.0]heptadecane-5,9-dione] | 3500 | 30 | 18 | – | 3.5 | 31 | 0.23 | 0.45 | 0.09 | – | – | – | – | – | – | – | – | –
